# Test results taken from patent US10407467B2, “Polymyxin derivatives and their use in combination therapy together with different antibiotics” (priority 2013, dated 2019).
# Bridge positions count the residues as written; N and C are the ends. Square brackets hold non-standard residues; d marks the D form. Peptide text beside a SMILES is read from it. ξ: configuration not given here. Thr(3ξ) = CC(O)[C@H](N)C(=O)O; Dab = NCC[C@H](N)C(=O)O; GABA = NCCCC(=O)O
# Key:
# [1] = test system: Klebsiella pneumoniae ATCC10031
# Method: At 1 h, the CFU count was determined from 5 mice and the remaining mice (five per group) were treated with a subcutaneous injection of the drug at +1 and 6 hr post-infection.
# Twenty-four hours after infection, the mice were euthanized humanely. The muscle of the right thigh of each animal was harvested, homogenized, serially diluted and plated on Brain Heart Infusion agar+0.5% charcoal (w/v) for CFU determination. Decrease of the total CFU of right thigh as compared to control counts at 24 h post-infection was determined for each dose group.
# [2] = rats, 8 mg/kg BID regimen, seven days, compared to Colistin at the same dose regimen
# Method: After one week acclimatisation, male Sprague-Dawley rats were surgically prepared with a jugular cannula and were housed individually, as required, either in pre-assigned housing cages or metabolic cages. Colistin and the Example Compounds were prepared in saline.
# Compounds were introduced via the jugular cannula twice a day 7 hours apart for seven days. Each dose was increased progressively for three days up to the top dose that was then administered until termination of the study. Twenty-four hour urine collection (on ice) was performed at pre-dose and on days 4 and 7. The dose regimen is set out in Table 10 below.
# The doses in the table are indicated in mg drug base/kg (free base).
# The activity in urine of the N-acetyl-beta-D-glucosaminidase (NAG) was determined spectrophotometrically using the NAG assay kit from Roche Applied Science. Biomarkers of kidney injury were determined using the Kidney Injury Panel II from the Multi-Spot® Assay System (Meso Scale Discovery).
# Klebsiella pneumoniae [3] = experiment: MIC, sole activity (no second agent); assay type: cell-based
# Outline: (§1)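 First, isolated colonies grown 18-24 hours on Mueller-Hinton agar were suspended to 0.5 McFarland; next, up to four strains per pathogen were tested in duplicate in cation-adjusted MHB; finally, the lower concordant value or modal repeat value was reported against Polymyxin B.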
# Pseudomonas aeruginosa [4] = experiment: MIC, sole activity (no second agent); assay type: cell-based
# Outline: as §1
# Escherichia coli [5] = experiment: MIC, sole activity (no second agent); assay type: cell-based
# Outline: as §1
# Klebsiella pneumoniae [6] = experiment: MIC, compound in combination with a second agent (broth microdilution); assay type: cell-based
# Outline: (§2)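 MIC = combined concentration of test compound plus partner agent, mixed at equal mass (1:1 w/w, salt form as used). Up to four strains per species; colonies adjusted to 0.5 McFarland. Run in duplicate; >2-fold disagreement invalidates the run.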
# HK-2 cell line = experiment: In vitro renal cell toxicity assay (resazurin reduction); assay type: cell-based, human; details: HK-2 cells, 24 h, resazurin reduction; mean values of up to 6 independent studies
# Acinetobacter baumannii [7] = experiment: MIC, sole activity (no second agent); assay type: cell-based; details: Second Agent none (Table 7B, by row order)
# Outline: as §1
# Acinetobacter baumannii [8] = experiment: MIC, compound in combination with a second agent (broth microdilution); assay type: cell-based
# Outline: as §2
# Pseudomonas aeruginosa [9] = experiment: as above; assay type: cell-based
# Outline: as §2
# Escherichia coli [10] = experiment: as above; assay type: cell-based
# Outline: as §2
# [11] = 1:1 (wt:wt) combination with Rifampicin, MIC = total drug concentration, strain ATCC-BAA-2146
# [12] = 1:1 (wt:wt) combination with Rifampicin, MIC = total drug concentration, strain CCUG-59348
# [13] = 1:1 (wt:wt) combination with Rifampicin, MIC = total drug concentration, strain NCTC 13438
# [14] = Second Agent none (Table 7B, by row order)
# [15] = 1:1 combination with Ciprofloxacin (by row order), total drug concentration
# [16] = 1:1 combination with Ciprofloxacin, total drug concentration
# [17] = 1:1 combination with Tigecycline, total drug concentration
# [18] = 1:1 combination with Vancomycin, total drug concentration
# [19] = Ratio of Compound to Rifampicin 1:1, total drug concentration
# [20] = Ratio of Compound to Rifampicin 1:3, total drug concentration
# [21] = Ratio of Compound to Rifampicin 3:1, total drug concentration
compound,measurement,setting,value
"CC(C)C[C@@H]1NC(=O)[C@@H](Cc2ccccc2)NC(=O)[C@H](CCN)NC(=O)[C@@H](NC(=O)[C@H](CCN)NC(=O)[C@@H](NC(=O)CCCN)C(C)O)CCNC(=O)[C@H](C(C)O)NC(=O)[C@H](CCN)NC(=O)[C@H](CCN)NC1=O (stereo partly drawn) [Example 4, 4-Aminobutanoyl polymyxin B nonapeptide] (H-[GABA][Thr(3ξ)][Dab][Dab][Dab][dF]L[Dab][Dab][Thr(3ξ)]; lactam 4-C)",reduction in bacterial counts,"[1]; 10 mg/kg/day, neutropenic mice thigh infection",approx. 2 log10
same,"levels of the renal biomarkers NAG, albumin and cystatin C in urine",[2],significantly reduced levels
same,MIC K. pneumoniae ATCC 4352,"Klebsiella pneumoniae [3]; in the absence of Rifampicin, strain ATCC 4352",1 micrograms/mL
same,MIC K. pneumoniae ATCC-BAA2146,"Klebsiella pneumoniae [3]; in the absence of Rifampicin, strain ATCC-BAA2146",>32 micrograms/mL
same,MIC K. pneumoniae CCUG-59348,"Klebsiella pneumoniae [3]; in the absence of Rifampicin, strain CCUG-59348",>32 micrograms/mL
same,MIC K. pneumoniae NCTC-13438,"Klebsiella pneumoniae [3]; in the absence of Rifampicin, strain NCTC-13438",>32 micrograms/mL
same,MIC P. aeruginosa ATCC 27853,"Pseudomonas aeruginosa [4]; in the absence of Rifampicin, strain ATCC27853",0.25 micrograms/mL
same,MIC P. aeruginosa ATCCCRM-9027,"Pseudomonas aeruginosa [4]; in the absence of Rifampicin, strain ATCCCRM-9027",0.125 micrograms/mL
same,MIC E. coli ATCC25922,"Escherichia coli [5]; in the absence of Rifampicin, strain ATCC25922",2 micrograms/mL
same,MIC E. coli NCTC9001,"Escherichia coli [5]; in the absence of Rifampicin, strain NCTC9001",8 micrograms/mL
same,MIC K. pneumoniae ATCC-BAA-2146,Klebsiella pneumoniae [6]; [11],2 micrograms/mL
same,MIC K. pneumoniae CCUG-59348,Klebsiella pneumoniae [6]; [12],16 micrograms/mL
same,MIC K. pneumoniae NCTC 13438,Klebsiella pneumoniae [6]; [13],0.5 micrograms/mL
Colistin [reference compound],Mean log10 CFU reduction vs. control,"[1]; Total daily dosage 10 mg/Kg (sulfate salt), subcutaneous BID",2.60 log10 CFU
same,IC50 HK-2 cells,HK-2 cell line,28 µg/mL
same,MIC A. baumannii NCTC 13424,Acinetobacter baumannii [7],0.5 micrograms/mL
same,MIC K. pneumoniae ATCC BAA-1706,"Klebsiella pneumoniae [3]; K. pneumoniae ATCC BAA-1706, second agent none",2 micrograms/mL
same,MIC K. pneumoniae CCUG 59348,"Klebsiella pneumoniae [3]; K. pneumoniae CCUG 59348, second agent none",32 micrograms/mL
same,MIC K. pneumoniae NCTC 13442,"Klebsiella pneumoniae [3]; K. pneumoniae NCTC 13442, second agent none",2 micrograms/mL
same,MIC K. pneumoniae CCUG 59348,Klebsiella pneumoniae [3]; Second Agent none (Table 7A),32 microgram/mL
same,MIC K. pneumoniae CCUG 59626,Klebsiella pneumoniae [3]; Second Agent none (Table 7A),0.5 microgram/mL
same,MIC K. pneumoniae NCTC 13442,Klebsiella pneumoniae [3]; Second Agent none (Table 7A),2 microgram/mL
same,MIC K. pneumoniae CCUG 59348,Klebsiella pneumoniae [3]; Second Agent none (Table 7B),32 micrograms/mL
same,MIC K. pneumoniae NCTC 13442,Klebsiella pneumoniae [3]; Second Agent none (Table 7B),2 micrograms/mL
same,MIC K. pneumoniae ATCC 4352,Klebsiella pneumoniae [3]; [14],0.5 micrograms/mL
same,MIC K. pneumoniae ATCC BAA-1706,Klebsiella pneumoniae [3]; [14],2 micrograms/mL
same,MIC K. pneumoniae CCUG 59348,Klebsiella pneumoniae [3]; Second Agent none (Table 7C),32 micrograms/mL
same,MIC K. pneumoniae NCTC 13442,Klebsiella pneumoniae [3]; Second Agent none (Table 7C),2 micrograms/mL
same,MIC P. aeruginosa CCUG 59626,"Pseudomonas aeruginosa [4]; P. aeruginosa CCUG 59626, second agent none",0.5 micrograms/mL
same,MIC P. aeruginosa ATCC 27853,Pseudomonas aeruginosa [4]; [14],0.25 micrograms/mL
same,MIC P. aeruginosa CCUG 59626,Pseudomonas aeruginosa [4]; [14],0.5 micrograms/mL
same,MIC P. aeruginosa CCUG 59626,Pseudomonas aeruginosa [4]; Second Agent none (Table 7C),0.5 micrograms/mL
same,MIC E. coli NCTC9001,"Escherichia coli [5]; E. coli NCTC9001, second agent none",1 micrograms/mL
same,MIC E. coli NCTC9001,Escherichia coli [5]; Second Agent none (Table 7A),1 microgram/mL
same,MIC E. coli ATCC25922,Escherichia coli [5]; Second Agent none (Table 7B),1 micrograms/mL
same,MIC E. coli CCUG 59342,Escherichia coli [5]; Second Agent none (Table 7B),0.5 micrograms/mL
same,MIC E. coli NCTC9001,Escherichia coli [5]; Second Agent none (Table 7B),2 micrograms/mL
same,MIC E. coli NCTC9001,Escherichia coli [5]; Second Agent none (Table 7C),1 micrograms/mL
same,MIC A. baumannii ATCC BAA-747,"Acinetobacter baumannii [8]; 1:1 (wt:wt) combination with Rifampicin, MIC = total drug concentration, strain ATCC BAA-747",0.25 micrograms/mL
same,MIC A. baumannii CCUG57249,"Acinetobacter baumannii [8]; 1:1 (wt:wt) combination with Rifampicin, MIC = total drug concentration, strain CCUG57249",0.25 micrograms/mL
same,MIC A. baumannii NCTC 13423,"Acinetobacter baumannii [8]; 1:1 (wt:wt) combination with Rifampicin, MIC = total drug concentration, strain NCTC 13423",0.125 micrograms/mL
same,MIC A. baumannii NCTC 13424,"Acinetobacter baumannii [8]; 1:1 (wt:wt) combination with Rifampicin, MIC = total drug concentration, strain NCTC 13424",0.25 micrograms/mL
same,MIC A. baumannii NCTC 13424,Acinetobacter baumannii [8]; [15],0.5 micrograms/mL
same,MIC K. pneumoniae ATCC 4352,"Klebsiella pneumoniae [6]; 1:1 (wt:wt) combination with Rifampicin, MIC = total drug concentration, strain ATCC 4352",0.5 micrograms/mL
same,MIC K. pneumoniae ATCC-BAA-2146,Klebsiella pneumoniae [6]; [11],1 micrograms/mL
same,MIC K. pneumoniae CCUG-59348,Klebsiella pneumoniae [6]; [12],1 micrograms/mL
same,MIC K. pneumoniae NCTC 13438,Klebsiella pneumoniae [6]; [13],0.5 micrograms/mL
same,MIC K. pneumoniae ATCC 4352,Klebsiella pneumoniae [6]; [15],≤0.06 micrograms/mL
same,MIC K. pneumoniae ATCC BAA-1706,Klebsiella pneumoniae [6]; [15],1 micrograms/mL
same,MIC K. pneumoniae CCUG 59348,Klebsiella pneumoniae [6]; [16],32 micrograms/mL
same,MIC K. pneumoniae NCTC 13442,Klebsiella pneumoniae [6]; [16],1 micrograms/mL
same,MIC K. pneumoniae CCUG 59348,Klebsiella pneumoniae [6]; [17],>32 micrograms/mL
same,MIC K. pneumoniae NCTC 13442,Klebsiella pneumoniae [6]; [17],4 micrograms/mL
same,MIC K. pneumoniae CCUG 59348,Klebsiella pneumoniae [6]; [18],>32 microgram/mL
same,MIC K. pneumoniae CCUG 59626,Klebsiella pneumoniae [6]; [18],2 microgram/mL
same,MIC K. pneumoniae NCTC 13442,Klebsiella pneumoniae [6]; [18],8 microgram/mL
same,MIC K. pneumoniae ATCC BAA-1706,"Klebsiella pneumoniae [6]; K. pneumoniae ATCC BAA-1706, 1:1 combination with Meropenem, total drug concentration",4 micrograms/mL
same,MIC K. pneumoniae CCUG 59348,"Klebsiella pneumoniae [6]; K. pneumoniae CCUG 59348, 1:1 combination with Meropenem, total drug concentration",>32 micrograms/mL
same,MIC K. pneumoniae NCTC 13442,"Klebsiella pneumoniae [6]; K. pneumoniae NCTC 13442, 1:1 combination with Meropenem, total drug concentration",4 micrograms/mL
same,MIC K. pneumoniae ATCC-BAA-2146,Klebsiella pneumoniae [6]; [19],1 micrograms/mL
same,MIC K. pneumoniae CCUG-59348,Klebsiella pneumoniae [6]; [19],2 micrograms/mL
same,MIC K. pneumoniae NCTC 13438,Klebsiella pneumoniae [6]; [19],2 micrograms/mL
same,MIC K. pneumoniae ATCC-BAA-2146,Klebsiella pneumoniae [6]; [20],4 micrograms/mL
same,MIC K. pneumoniae CCUG-59348,Klebsiella pneumoniae [6]; [20],4 micrograms/mL
same,MIC K. pneumoniae NCTC 13438,Klebsiella pneumoniae [6]; [20],2 micrograms/mL
same,MIC K. pneumoniae ATCC-BAA-2146,Klebsiella pneumoniae [6]; [21],1 micrograms/mL
same,MIC K. pneumoniae CCUG-59348,Klebsiella pneumoniae [6]; [21],1 micrograms/mL
same,MIC K. pneumoniae NCTC 13438,Klebsiella pneumoniae [6]; [21],1 micrograms/mL
same,MIC P. aeruginosa ATCC 27853,"Pseudomonas aeruginosa [9]; 1:1 (wt:wt) combination with Rifampicin, MIC = total drug concentration, strain ATCC 27853",0.25 micrograms/mL
same,MIC P. aeruginosa ATCC CRM-9027,"Pseudomonas aeruginosa [9]; 1:1 (wt:wt) combination with Rifampicin, MIC = total drug concentration, strain ATCC CRM-9027",1 micrograms/mL
same,MIC P. aeruginosa ATCC-47,"Pseudomonas aeruginosa [9]; 1:1 (wt:wt) combination with Rifampicin, MIC = total drug concentration, strain ATCC-47",2 micrograms/mL
same,MIC P. aeruginosa CCUG 59626,"Pseudomonas aeruginosa [9]; 1:1 (wt:wt) combination with Rifampicin, MIC = total drug concentration, strain CCUG 59626",0.5 micrograms/mL
same,MIC P. aeruginosa ATCC 27853,Pseudomonas aeruginosa [9]; [15],0.125 micrograms/mL
same,MIC P. aeruginosa CCUG 59626,Pseudomonas aeruginosa [9]; [15],1 micrograms/mL
same,MIC P. aeruginosa CCUG 59626,Pseudomonas aeruginosa [9]; [17],1 micrograms/mL
same,MIC P. aeruginosa CCUG 59626,"Pseudomonas aeruginosa [9]; P. aeruginosa CCUG 59626, 1:1 combination with Meropenem, total drug concentration",1 micrograms/mL
same,MIC E. coli ATCC25922,"Escherichia coli [10]; 1:1 (wt:wt) combination with Rifampicin, MIC = total drug concentration, strain ATCC25922",0.25 micrograms/mL
same,MIC E. coli NCTC9001,"Escherichia coli [10]; 1:1 (wt:wt) combination with Rifampicin, MIC = total drug concentration, strain NCTC9001",0.25 micrograms/mL
same,MIC E. coli ATCC25922,Escherichia coli [10]; [16],≤0.06 micrograms/mL
same,MIC E. coli CCUG 59342,Escherichia coli [10]; [16],1 micrograms/mL
same,MIC E. coli NCTC9001,Escherichia coli [10]; [16],≤0.06 micrograms/mL
same,MIC E. coli NCTC9001,Escherichia coli [10]; [17],4 micrograms/mL
same,MIC E. coli NCTC9001,Escherichia coli [10]; [18],4 microgram/mL
same,MIC E. coli NCTC9001,"Escherichia coli [10]; E. coli NCTC9001, 1:1 combination with Meropenem, total drug concentration",0.25 micrograms/mL
